Here are results for 6 molecules from US6858707B1, “Hypersensitive response elicitor fragments which are active but do not elicit a hypersensitive response” (EDEN Bioscience Corporation, priority 1998, dated 2005).

Where “and” joins values, the source holds several entries; their conditions need not be identical. Equal values may be shown once.

The subject of data set [1] is TMV. In words: Induction of systemic acquired resistance (SAR), TMV lesions on tobacco. The conditions noted are these: oligopeptides, Table 5; reduction in TMV lesions vs buffer control. It is filed as in vivo, Nicotiana tabacum.
For data set [2], the system named is tomato (Lycopersicon spp. cv. Marglobe). In words: Induction of growth enhancement (GE/PGE), tomato seed soak. The conditions noted are these: for PGE ht>buffer: oligopeptides, Table 5, tomato height vs buffer; for PGE ht>buffer @10 μg/ml: tomato seeds soaked overnight at 10 μg/ml; for PGE ht>buffer @10 μg/ml / PGE ht>buffer @20 μg/ml: height vs buffer control, >10% needed to pass; for PGE ht>buffer @20 μg/ml: tomato seeds soaked overnight at 20 μg/ml. It is filed as in vivo. The protocol: Sixty tomato (Lycopersicon spp. cv. […] The next morning, the sixty seeds were sewn in three pots and 12-15 days later and again 18-20 days later the heights of the 10 tallest tomato plants per pot were measured and compared with the heights of the control plants treated only with phosphate buffer. Analyses were done on the heights to determine if there was a significant difference in the height of the plants treated with the truncated proteins compared with the buffer control, and thereby determine whether the proteins induced growth enhancement.

Data set [3] has as its system TMV. Nature of the data set: Induction of systemic acquired resistance (SAR), TMV lesions on tobacco. It is filed as in vivo, Nicotiana tabacum. The conditions noted are these: tobacco sprayed with 20 μg/ml, reduction in TMV lesions vs buffer control. The protocol: Three tobacco (Nicotiana tabacum cv. Xanthi) plants with 8-12 leaves (ca. 75 day old plants) were used in the assay. One leaf of the tobacco plants was covered up and the rest of the leaves were sprayed with ca. 50 ml of a 20 μg/ml solution of the truncated proteins diluted with 5 mM potassium phosphate buffer. Five to seven days later two leaves (the unsprayed leaf and the sprayed leaf opposite and just above the unsprayed leaf) were inoculated with 20 μl of a 1.8 μg/ml solution of TMV along with a pinch of diatomaceous earth by rubbing the mixture along the top surface of the leaves. The TMV entered the plants through tiny lesions made by the diatomaceous earth. Ca. 3-4 days post TMV inolucation, the number of TMV lesions was counted on both leaves compared with the number of lesions on the negative control buffer treated leaves. Analyses were done to determine the efficacy of reducing the number of TWV lesions by the protein fragents compared to the buffer control. Percentage of efficacy was calculated as: Reduction in TMV lesions (% efficacy)=100×(1−mean # of lesions on treated leaves/mean # of lesions on buffer control leaves).

In data set [4] the test system is tobacco (Nicotiana tabacum v. Xanthi) leaves. Nature of the data set: Induction of HR in tobacco by hrpN truncated proteins. It is filed as in vivo. The note with it: large scale purified protein; concentration down to which HR is elicited in tobacco; — = no HR. The protocol: A 1.5 ml aliquot from the 50 ml cultures grown for small scale purification of the truncated proteins was centrifuged at 14,000 rpm for four minutes and re-suspended in an equal volume of 5 mM potassium phosphate buffer, pH 6.8. The cell suspension was sonicated for ca. 30 seconds then diluted 1:2 and 1:10 with phosphate buffer. Both dilutions plus the neat cell lysate were infiltrated into the fourth to ninth leaves of 10-15 leaf tobacco plants by making a hole in single leaf panes and infiltrating the bacterial lysate into the intercellular leaf space using a syringe without a needle. The HR response was recorded 24-48 hr post infiltration. Tobacco (Nicotiana tabacum v. Xanthi) seedlings were grown in an environmental chamber at 20-25° C. with a photoperiod of 12-h light/12-h dark and ca. 40% RH. Cell lysate was used for the initial HR assays (in order to screen the truncated proteins for HR activity) as the small scale urea purification yielded very little protein which was denatured due to the purification process.
The full length positive control protein elicited HR down to only 5-7 μg/ml. […] This false HR was likely due to an affinity of the imidazole used in the purification process to bind to one or several of the background proteins, thereby not completely dialyzing out.

Take “oligo 150-179: synthesized oligopeptide, amino acids 150-179 of SEQ ID NO: 23 (STSDSSDPMQQLLKMFSEIMQSLFGDGQDG; listed as Erwinia amylovora)”: in data set [1], the TMV efficacy was 72.9%. Besides, the “PGE ht>buffer” value in data set [2] came to 10.1%.
In the same order, the values of “oligo 137-156: synthesized oligopeptide, amino acids 137-156 of SEQ ID NO: 23 (STSQNDDSTSGTDSTSDSSD; listed as Erwinia amylovora)” are −87.7% and 7.4%.
In the same order, the values of “oligo 121-150: synthesized oligopeptide, amino acids 121-150 of SEQ ID NO: 23 (TTSTTNSPLDQALGINSTSQNDDSTSGTDS; listed as Erwinia amylovora)” are 60.0% and 17.3%.
In the same order, the values of “oligo 137-166: synthesized oligopeptide, amino acids 137-166 of SEQ ID NO: 23 (STSQNDDSTSGTDSTSDSSDPMQQLLKMFS; listed as Erwinia amylovora)” are 61.2% and 12.0%.

B1: Fragment 19: amino acids 137-204 of SEQ ID NO: 23, internal fragment (protein, listed as Erwinia amylovora)
chain: STSQNDDSTSGTDSTSDSSDPMQQLLKMFSEIMQSLFGDGQDGTQGSSSGGKQPTEGEQNAYKKGVTD
Consider B1, for which, in data set [2], the “PGE ht>buffer @10 μg/ml” value is given as 11% and the “PGE ht>buffer @20 μg/ml” value amounted to 13%. The “Efficacy of TMV control” value in data set [3] (listed as 19) is 89% and 77%. For the same molecule, the HR titer in data set [4] was found to be 3.5 µg/mL.

B2: Fragment 15: amino acids 105-209 of SEQ ID NO: 23, internal fragment (protein, listed as Erwinia amylovora)
chain: MLGGSLNTLGSKGGNNTTSTTNSPLDQALGINSTSQNDDSTSGTDSTSDSSDPMQQLLKMFSEIMQSLFGDGQDGTQGSSSGGKQPTEGEQNAYKKGVTDALSGL
As to B2, in data set [2], the “PGE ht>buffer @10 μg/ml” value was determined as 14% and the “PGE ht>buffer @20 μg/ml” value is on record as 19%. Moreover, the “Efficacy of TMV control” value in data set [3] (listed as 15) was 57% and 67%. Also, the HR titer in data set [4] is 5 to 10 µg/mL.
